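These data come from cells grown in 96-well plates and exposed to compound for 48 hours at five concentrations. Abbreviation: GI50, concentration required for 50% inhibition of growth. TGI marks complete inhibition of growth.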
What was measured:
Assay in all cases: inhibition of tumour cell growth, NCI panel, 48 h
RXF 393 renal = tested on: RXF 393 renal
HT29 colon = tested on: HT29 colon
SK-MEL-28 melanoma = tested on: SK-MEL-28 melanoma
OVCAR-3 ovarian = tested on: OVCAR-3 ovarian
DLD-1 colon = tested on: DLD-1 colon
CAKI-1 renal = tested on: CAKI-1 renal
IGROV1 ovarian = tested on: IGROV1 ovarian
UACC-257 melanoma = tested on: UACC-257 melanoma
DMS 114 small cell lung = tested on: DMS 114 small cell lung
HL-60(TB) leukemia = tested on: HL-60(TB) leukemia

Row | Structure (SMILES) | TGI (RXF 393 renal) [µM] | TGI (HT29 colon) [µM] | TGI (SK-MEL-28 melanoma) [µM] | TGI (OVCAR-3 ovarian) [µM] | TGI (DLD-1 colon) [µM] | TGI (CAKI-1 renal) [µM] | TGI (IGROV1 ovarian) [µM] | TGI (UACC-257 melanoma) [µM] | TGI (DMS 114 small cell lung) [µM] | TGI (HL-60(TB) leukemia) [µM] | GI50 (RXF 393 renal) [µM] | GI50 (HL-60(TB) leukemia) [µM] | GI50 (HT29 colon) [µM] | GI50 (SK-MEL-28 melanoma) [µM] | GI50 (OVCAR-3 ovarian) [µM] | GI50 (CAKI-1 renal) [µM] | GI50 (IGROV1 ovarian) [µM] | GI50 (UACC-257 melanoma) [µM] | GI50 (DLD-1 colon) [µM]
1 | O=C(CCc1ccccc1)CC1OC(=O)C(Cl)=C1Cl (stereo not drawn) | 59.8 | 58.2 | 32.9 | 38.1 | 32.8 | 59.1 | 40.8 | 41.1 | – | – | – | – | – | – | – | – | – | – | –
2 | Cc1ccc(S(=O)(=O)C2CC2(Cl)Cl)cc1 (stereo not drawn) | 29.1 | 37.5 | > 100 | 52.6 | 61.1 | 86.1 | 72.1 | 44 | 39.8 | – | – | – | – | – | – | – | – | – | –
3 | COc1ccc2c(c1)[n+]([O-])c(-c1ccccc1Cl)c(N)[n+]2[O-] | – | > 100 | > 100 | > 100 | > 100 | > 100 | > 100 | > 100 | > 100 | > 100 | – | – | – | – | – | – | – | – | –
4 | O=C(N/C(=C\c1ccc(/C=C(\NC(=O)c2ccccc2)c2nc3c(O)nc(S)nc3[nH]2)cc1)c1nc2c(O)nc(S)nc2[nH]1)c1ccccc1 | > 100 | > 100 | > 100 | > 100 | > 100 | > 100 | > 100 | > 100 | > 100 | – | – | – | – | – | – | – | – | – | –
5 | COc1cc(C2NC(=O)C(C#N)=C(Nc3cccc(C)c3)S2)ccc1O (stereo not drawn) | > 100 | > 100 | > 100 | > 100 | – | > 100 | > 100 | > 100 | – | > 100 | > 100 | > 100 | > 100 | > 100 | > 100 | > 100 | > 100 | > 100 | –
6 | CC(C)(C)[Si](C)(C)OC1[C@@H](COC(=O)NC(=O)CCl)O[C@@H](n2cnc3c(N)ncnc32)[C@H]1O[Si](C)(C)C(C)(C)C (stereo partly drawn) | 7.99 | 8.53 | 13.7 | 8.32 | – | 11.2 | 1.67 | 13.8 | – | 12.3 | 2.33 | 4.52 | 2.59 | 7.12 | 2.66 | 4.25 | 0.783 | 6.98 | –
7 | COc1ccc(-c2[nH]ncc2Nc2cc(OC)c(OC)c(OC)c2)cc1 | > 22.3 | > 100 | > 100 | 3.69 | – | > 100 | > 100 | > 100 | – | 1.57 | 1.92 | 0.304 | 0.482 | 2.57 | 0.962 | 5.64 | 2.51 | 34 | –
8 | NC(=O)c1ncn(C2OC(CO)C(O)C2O)c1O (stereo not drawn) | > 100 | 46.5 | > 100 | > 100 | – | > 100 | > 100 | – | > 100 | > 100 | – | – | – | – | – | – | – | – | –
9 | N#Cc1ccc(C2SCc3nc4ccccc4n32)cc1 (stereo not drawn) | > 100 | – | > 100 | > 100 | > 100 | > 100 | > 100 | > 100 | – | > 100 | – | – | – | – | – | – | – | – | –
10 | Cc1ccc(Nc2nc(-c3ccc(-c4ccc([N+](=O)[O-])cc4)o3)cs2)cc1 | – | > 100 | > 100 | > 100 | > 100 | > 100 | > 100 | 90 | – | > 100 | – | – | – | – | – | – | – | – | –
11 | COc1ccc2nc3ccccc3c(NCCNCC(C)O)c2c1 (stereo not drawn) | 1.74 | 1.9 | 2.77 | 9.4 | – | 11.4 | 5.93 | 3.84 | – | 4.26 | 0.373 | 0.492 | 0.323 | 0.539 | 0.449 | 0.434 | 0.387 | 0.81 | –
12 | CCOCCOCCOCCOCCOCCOCCOCCOCCOCCO (tested in a mixture with another compound) | 8.88 | 4.36 | > 32.5 | 4.63 | – | 18.9 | 15.8 | 2.73 | – | 1.59 | 1.85 | 0.649 | 1.16 | 3.1 | 0.476 | 1.42 | 3.19 | 0.739 | –
13 | Cc1ccc(S(=O)(=O)NNS(C)(=O)=O)cc1 | > 100 | > 100 | – | > 100 | > 100 | > 100 | > 100 | > 100 | > 100 | – | – | – | – | – | – | – | – | – | –
14 | CCN(CC)C(=S)SS(C)(=O)=O | 23.4 | 31 | – | – | 33.3 | 57.1 | > 100 | 52.3 | – | 26.6 | – | – | – | – | – | – | – | – | –
15 | O=C1/C(=C/c2ccc([N+](=O)[O-])o2)Oc2ccc(Cl)cc21 | 3.6 | 3.98 | 3.38 | 3.19 | – | 3.61 | 4.5 | 4.12 | – | 18.3 | 1.65 | 2.08 | 1.87 | 1.71 | 1.7 | 1.7 | 1.92 | 1.85 | –
16 | CC(=O)[CH-]C(=O)c1ccccc1.CC(=O)[CH-]C(=O)c1ccccc1.CC(=O)[CH-]C(=O)c1ccccc1.[Ga+3] | 48 | 39.1 | 30.9 | 48.9 | 53.6 | 80 | 46.4 | 31.5 | – | 36.1 | 29.1 | 11.8 | 20.7 | 16.5 | 20.4 | 30.8 | 18.6 | 16.2 | 16.6
17 | CC(=O)C1C(=O)C(=O)N(CCN2C(=O)C(=O)C(C(C)=O)C2=O)C1=O (stereo not drawn) | > 100 | > 100 | > 100 | > 100 | – | > 100 | > 100 | > 100 | > 100 | – | – | – | – | – | – | – | – | – | –
18 | CC(=O)c1c(C)c2cnc(Nc3ccc(N4CCNCC4)cn3)nc2n(C2CCCC2)c1=O | 17.2 | 16.8 | 25.7 | 30.4 | – | 17.2 | 25 | 20.9 | – | 24.8 | 2.87 | 0.638 | 0.969 | 12.3 | 15.9 | 1.61 | 7.35 | 5.51 | –
19 | O=C(C(=CN1CCN(C(=O)c2ccco2)C1=S)C(=O)c1ccccc1)c1ccccc1 | 14.8 | > 50 | > 50 | 23 | – | 17.2 | 40.9 | 21.4 | – | 34.9 | 5.84 | 9.89 | 16.9 | 17.8 | 7.32 | 6.98 | 5.58 | 11.7 | –

Reference: PubChem BioAssay (NCI)
